Assay results taken from ChEMBL document CHEMBL2429775, “The cytotoxicity of 8-O-4' neolignans from the seeds of Crataegus pinnatifida” (Bioorg Med Chem Lett, 2013).

Assays:
K562 = experiment: Growth inhibition against human K562 cells after 48 hrs by MTT assay; assay type: functional, cell-based; settings: for IC50: K562, 48 h
MRC5 = experiment: Growth inhibition against human MRC5 cells after 48 hrs by MTT assay; assay type: cell-based; settings: for IC50: Homo sapiens, MRC5, 48 h; for growth inhibition (GI): human, mrc5, 48 h
HL-60 = experiment: Growth inhibition against human HL60 cells after 48 hrs by MTT assay; assay type: functional, cell-based; settings: for IC50: HL-60, 48 h
A375-S2 = experiment: (§1) Growth inhibition against human A375-S2 cells after 48 hrs by MTT assay; assay type: functional, cell-based
[1] = as §1; assay type: functional, cell-based; settings: A375-S2, 48 h
HCT-116 = experiment: Growth inhibition against human HCT116 cells after 48 hrs by MTT assay; assay type: functional, cell-based; settings: for IC50: HCT-116, 48 h
HepG2 = experiment: Growth inhibition against human HepG2 cells after 48 hrs by MTT assay; assay type: functional, cell-based; settings: for IC50: HepG2, 48 h
A549 = experiment: Growth inhibition against human A549 cells after 48 hrs by MTT assay; assay type: functional, cell-based; settings: for IC50: A549, 48 h
HeLa = experiment: Growth inhibition against human HeLa cells after 48 hrs by MTT assay; assay type: functional, cell-based
HT-1080 = experiment: Growth inhibition against human HT1080 cells after 48 hrs by MTT assay; assay type: functional, cell-based; settings: for IC50: HT-1080, 48 h
MCF7 = experiment: Growth inhibition against human MCF7 cells after 48 hrs by MTT assay; assay type: functional, cell-based; settings: for IC50: MCF7, 48 h
U-937 = experiment: Growth inhibition against human U937 cells after 48 hrs by MTT assay; assay type: functional, cell-based; settings: for IC50: U-937, 48 h

SMILES | growth inhibition (GI) (K562) | IC50 (K562) [µM] | IC50 (MRC5) [µM] | growth inhibition (GI) (MRC5) | growth inhibition (GI) (HL-60) | IC50 (HL-60) [µM] | growth inhibition (GI) (A375-S2) | IC50 [1] [µM] | growth inhibition (GI) (HCT-116) | IC50 (HCT-116) [µM] | growth inhibition (GI) (HepG2) | IC50 (HepG2) [µM] | growth inhibition (GI) (A549) | IC50 (A549) [µM] | IC50 (HeLa) [µM] | growth inhibition (GI) (HeLa) | growth inhibition (GI) (HT-1080) | IC50 (HT-1080) [µM] | growth inhibition (GI) (MCF7) | growth inhibition (GI) (U-937) | also measured
COc1cc([C@@H](O)[C@@H](CO)Oc2ccc(C=O)cc2OC)ccc1O | Dose-dependent effect | > 50 | > 50 | Dose-dependent effect | Dose-dependent effect | > 50 | Dose-dependent effect | > 50 | Dose-dependent effect | > 50 | Dose-dependent effect | > 50 | Dose-dependent effect | > 50 | > 50 | Dose-dependent effect | Dose-dependent effect | > 50 | Dose-dependent effect | Dose-dependent effect | IC50 (MCF7): > 50 µM; IC50 (U-937): 32.2 µM
O=c1[nH]cc(F)c(=O)[nH]1 [FLUOROURACIL] | Dose-dependent effect | – | – | – | Dose-dependent effect | 10.1 | Dose-dependent effect | – | Dose-dependent effect | – | Dose-dependent effect | – | Dose-dependent effect | – | – | Dose-dependent effect | Dose-dependent effect | – | Dose-dependent effect | Dose-dependent effect | –
COc1cc([C@H](O)[C@@H](CO)Oc2ccc(C=O)cc2OC)ccc1O | Dose-dependent effect | > 50 | > 50 | Dose-dependent effect | Dose-dependent effect | > 50 | Dose-dependent effect | > 50 | Dose-dependent effect | > 50 | Dose-dependent effect | > 50 | Dose-dependent effect | > 50 | > 50 | Dose-dependent effect | Dose-dependent effect | > 50 | Dose-dependent effect | Dose-dependent effect | IC50 (MCF7): > 50 µM; IC50 (U-937): 39.1 µM
COc1cc([C@H](O)[C@@H](CO)Oc2ccc(/C=C/C=O)cc2OC)ccc1O | Dose-dependent effect | > 50 | > 50 | Dose-dependent effect | Dose-dependent effect | 36.6 | Dose-dependent effect | 36.4 | Dose-dependent effect | 32.5 | Dose-dependent effect | 38.5 | Dose-dependent effect | 33.6 | > 50 | Dose-dependent effect | Dose-dependent effect | 35.2 | Dose-dependent effect | Dose-dependent effect | IC50 (MCF7): > 50 µM; IC50 (U-937): > 50 µM
COC/C=C/c1ccc(O[C@H](CO)[C@H](OC)c2ccc(O)c(OC)c2)c(OC)c1 | Dose-dependent effect | > 50 | > 50 | Dose-dependent effect | Dose-dependent effect | 27.4 | Dose-dependent effect | > 50 | Dose-dependent effect | 36 | Dose-dependent effect | > 50 | Dose-dependent effect | > 50 | > 50 | Dose-dependent effect | Dose-dependent effect | 36.4 | Dose-dependent effect | Dose-dependent effect | IC50 (MCF7): > 50 µM; IC50 (U-937): > 50 µM
COc1cc([C@@H](O)[C@@H](CO)Oc2ccc(/C=C/C=O)cc2OC)ccc1O | Dose-dependent effect | > 50 | > 50 | Dose-dependent effect | Dose-dependent effect | 33.5 | Dose-dependent effect | 34.2 | Dose-dependent effect | 27.3 | Dose-dependent effect | 38.6 | Dose-dependent effect | 25.5 | > 50 | Dose-dependent effect | Dose-dependent effect | 33 | Dose-dependent effect | Dose-dependent effect | IC50 (MCF7): > 50 µM; IC50 (U-937): > 50 µM
COc1cc([C@@H](OC)[C@@H](CO)Oc2ccc(/C=C/C=O)cc2OC)ccc1O | Dose-dependent effect | > 50 | > 50 | Dose-dependent effect | Dose-dependent effect | 25.5 | Dose-dependent effect | > 50 | Dose-dependent effect | 26.4 | Dose-dependent effect | 40 | Dose-dependent effect | > 50 | > 50 | Dose-dependent effect | Dose-dependent effect | 31.9 | Dose-dependent effect | Dose-dependent effect | IC50 (MCF7): > 50 µM; IC50 (U-937): 2.71 µM
